Four compounds from ChEMBL document CHEMBL5727757, “Methods, compositions, and uses of novel Fyn kinase inhibitors” (2020) can be followed below.

As usually defined, the IC50 is the concentration at which inhibition is half-maximal. The low end stands for greater potency, the high end for weaker potency.

Tyrosine-protein kinase Fyn, sequence (P06241 whole entry): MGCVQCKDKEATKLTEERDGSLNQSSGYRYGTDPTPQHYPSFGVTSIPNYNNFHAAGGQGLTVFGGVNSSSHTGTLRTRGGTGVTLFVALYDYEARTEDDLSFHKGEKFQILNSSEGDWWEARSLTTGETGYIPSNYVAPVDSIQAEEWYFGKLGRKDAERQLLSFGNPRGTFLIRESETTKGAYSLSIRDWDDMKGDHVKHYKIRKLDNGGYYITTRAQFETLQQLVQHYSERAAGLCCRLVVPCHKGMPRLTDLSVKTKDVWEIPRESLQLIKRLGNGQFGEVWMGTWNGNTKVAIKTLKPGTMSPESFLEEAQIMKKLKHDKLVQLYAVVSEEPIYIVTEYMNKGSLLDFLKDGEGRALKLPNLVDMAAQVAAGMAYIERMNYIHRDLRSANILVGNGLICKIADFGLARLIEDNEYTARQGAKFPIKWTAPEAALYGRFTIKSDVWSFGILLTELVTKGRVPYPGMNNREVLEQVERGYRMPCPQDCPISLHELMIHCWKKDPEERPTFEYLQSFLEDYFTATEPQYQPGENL

This assay has as its target Tyrosine-protein kinase Fyn (Homo sapiens, UniProt P06241). Put plainly: ADP-Glo Kinase Assay: The assay procedure determines the IC50 of each potential FYN kinase inhibitor by measuring the enzyme catalyzed ATP-dependent phosphorylation of the FYN substrate peptide. The ADP-Glo™ Kinase Assay is specifically designed to quantify kinase activity by measuring the ADP produced in the reaction The reaction buffer comprises 40 mM Tris.HCl (pH 7.5), 20 mM MgCl2, 0.1 mg/ml BSA and 5 microM DTT. Individual compounds within the chemical library were dissolved in DMSO at known concentrations. Briefly, 2.5 microliters of reaction buffer containing 3 picograms of FYN kinase and serial dilutions of each potential FYN kinase inhibitor (9 3-fold dilutions of a 10 micromolar top sample) are placed into each well of a 384 well microtiter plate and incubated at room temperature for 30 minutes. An additional 2.5 microliters of reaction buffer containing 100 picograms of the FYN substrate and 12.5 picomoles of ATP are then added to each well and the reaction carried out for 90 minutes at room temperature.
`COc1cc(-c2nn([C@H]3CC[C@H](N4CCN(C)CC4)CC3)c3ncnc(N)c23)ccc1NC(=O)c1cc2ccccc2n1C` gave an IC50 of 330 nM.
Turning to `COc1ccc2c(c1)-c1nc(Nc3cc(C)c(OCCN(C)C)c(C)c3)ncc1CC2`, half-maximal inhibition (IC50) was put at 8 nM.
Then `COc1cc2ncnc3c2cc1OCCCCCN(C(=O)OCc1ccccc1)Cc1ccc2c(c1N3)OCO2`, with 6.69 nM.
The compound `COc1ccc2c(c1)-c1nc(Nc3ccc(CCCN4CCCC4)c(OC)c3)ncc1CC2(C)C` registered an IC50 of 8 nM.
